Assay results as given in patent US11840495B2, “Compositions and methods related to di-substituted bicyclo[2.2.1] heptanamine-containing compounds” (The Broad Institute, Inc., priority 2020, dated 2023).
Counter-ions that a name gives are not always drawn. Like-named read-outs stand apart in the source and are kept apart here.

Tests used:
MUC1-fs = assay: Immunofluorescence imaging of MUC1-fs in P cells (Example 2); assay type: cell-based; details: for EC50: 48 hr incubation, MUC1-fs; for Emax / ECMax (%): 48 hr; for Emax: DMSO = 0, JQ1 = −100% activity, in %; for ECMax (%): DMSO = 0, JQ1 (250 nM) = −100% activity
Experimental: (§1) P cells were seeded 24 hr prior to compound treatment at a density of 12,000 cells/well in 384 well Cell Carrier Ultra plates (6057308, Perkin Elmer), pre-coated with 0.25 mg/mL Synthemax II SC Substrate (3535, Corning). Compounds were used at 5 doses (35, 3.5, 0.35, 0.035 and 0.0035 μM) for the primary screen and 10 doses (16, 5.6, 1.8, 0.6, 0.21, 0.07, 0.02, 0.008, 0.002 and 0.0008 μM) for the following screens. The compounds, in two replicates, were transferred from compound source plates to the cell plates using the HighRes Pin Tool. DMSO was used as a negative control and JQ1 (250 nM) (a bromodomain inhibitor) was chosen as a positive control, based on earlier studies showing its potent effect on reducing total MUC1 mRNA levels (data not shown). After 48 hr incubation, cells were fixed for 20 min in 4% PFA (Electron Microscopy Sciences) in PBS, washed twice, then permeabilized (10 min) with 0.5% Triton-X100 (X100-100ML, Sigma-Aldrich) in PBS and washed once more. Cells were blocked for 10 min at RT with Blocking solution (100 mM Tris HCL pH8; 150 mM NaCL; 5 g/L Blocking Reagent [11096176001, Roche]), then incubated 90 min at RT with one of the following primary antibodies in Roche Blocking solution: 1:500, monoclonal Fab-A-VSH anti-MUC1-fs, AbD22655.2, Bio-Rad; 1:2000, monoclonal mouse anti-MUC1 (214D4), 05-652-KC, Millipore; 1:1000, monoclonal, Rabbit anti-GM130 (D6B1) XP, 12480, Cell signaling technology. The primary antibody cocktail was incubated at RT for 1.5 hr, followed by four PBS wash cycles. The secondary antibody cocktail contained four components that were all prepared at a 1:1000 dilution in the Roche blocking solution and consisted of Alexa Fluor® 488-conjugated AffiniPure F(ab′)2 Fragment Goat anti-Human IgG, 109-546-097, Jackson Immunoresearch; Alexa Fluor® 647-conjugated Goat anti-Rabbit IgG, A-21246, Thermo Fisher Scientific®; Alexa Fluor® 546 Goat anti-mouse IgG, A-21123, Thermo Fisher Scientific® and Hoechst 33342 stain (62249, Thermo Fisher Scientific®). The secondary antibody cocktail was incubated at RT for 45 min, followed by four PBS wash cycles. Finally, plates were sealed with a Plate Loc plate and stored in Liconic incubator at 10° C. until imaging. Following image analysis, three parameters were selected, i) MUC1-fs and ii) MUC1-wt total cytoplasm intensity (averaged per cell) and iii) cell number as was detected by Hoechst 33342 stained nuclei. The levels of MUC1-fs and MUC1-wt found following DMSO and JQ1 were defined as 0 and −100% activity, respectively. The values obtained for all compounds were normalized accordingly. Cell number was normalized to DMSO control.

MUC1-wt = assay: Immunofluorescence imaging of MUC1-wt in P cells (Example 2); assay type: cell-based; details: for EC50: 48 hr incubation, MUC1-wt; for WT EMax / WT ECMax (%): 48 hr; for WT EMax: DMSO = 0, JQ1 = −100% activity, in %; for WT ECMax (%): DMSO = 0, JQ1 (250 nM) = −100% activity
Experimental: as §1

Row | Compound | EC50 (MUC1-fs; read-out: EC50) [µM] | EC50 (MUC1-wt; read-out: WT EC50) [µM] | EC50 (MUC1-fs; read-out: EC50(Spot)) [µM] | EC50 (MUC1-wt; read-out: WT EC50 (Cytoplasm)) [µM] | Emax (MUC1-fs) | WT EMax (MUC1-wt) | ECMax (%) (MUC1-fs) | WT ECMax (%) (MUC1-wt) | Emax (MUC1-fs; hydrochloride) | WT EMax (MUC1-wt; hydrochloride)
1 | Cl.N[C@@H]1[C@@H]2CC[C@@H](C2)C12CC1CCC2CC1 (stereo partly drawn) [Compound 239, (1S,3R,4R)-spiro[bicyclo[2.2.1]heptane-2,2′-bicyclo[2.2.2]octan]-3-amine hydrochloride] | 2.29 | 13.5 | – | – | −83.1 | 62.7 | – | – | – | –
2 | (1S,3R,4R)-spiro[bicyclo[2.2.1]heptane-3,1′-cyclopentan]-2-amine hydrochloride [Compound 209-P2] | – | – | 0.01 | 2.06 | – | – | −64.28 | −210 | – | –
3 | Cl.N[C@@H]1[C@@H]2CC[C@@H](C2)C12CCCC(C(=O)N1CCCCC1)C2 (stereo partly drawn) [Compound 227, ((1S,3R,4R)-3-aminospiro[bicyclo[2.2.1]heptane-2,1′-cyclohexan]-3′-yl)(piperidin-1-yl)methanone hydrochloride] | > 16 | > 16 | – | – | −39.9 | 4.6 | – | – | – | –
4 | Cl.NC1C2CCC(C2)C12CC(O)C(O)C2 (racemic) [Compound 228, rac-3-aminospiro[bicyclo[2.2.1]heptane-2,1′-cyclopentane]-3′,4′-diol hydrochloride] | > 16 | > 16 | – | – | −15.1 | −10.2 | – | – | – | –
5 | CCCC1(CCC)[C@H]2CC[C@H](C2)[C@H]1N.Cl (racemic) [Compound 205] | – | – | > 32 | > 32 | – | – | −3.08 | −12.24 | – | –
6 | NC1C2CCC(C2)C12CCCCC2 [Compound 212-P1, (1R,3S,4S)-spiro[bicyclo[2.2.1]heptane-3,1′-cyclohexan]-2-amine] | – | – | 1.57 | 3.01 | – | – | −65.18 | 110.73 | – | –
7 | CC1(C)[C@H]2CC[C@H](C2)[C@H]1N (single isomer, unassigned) [Compound 201-P1, hydrochloride] | – | – | 0.088 | 10.3 | – | – | −94.91 | 63 | – | –
8 | CCC1(CC)[C@H]2CC[C@H](C2)[C@H]1N.Cl (racemic) [Compound 204] | – | – | 0.01 | 1.01 | – | – | −85.02 | 190.26 | – | –
9 | CC1(CC2CC2)C2CCC(C2)C1N.Cl (racemic) [Compound 244, rac-3-(cyclopropylmethyl)-3-methylbicyclo[2.2.1]heptan-2-amine hydrochloride] | > 16 | > 16 | – | – | – | – | – | – | −35.0 | −9.0
10 | Cl.N[C@H]1[C@@H]2CC[C@@H](C2)C12CCCC(C(=O)N1CCOCC1)C2 (stereo partly drawn) [Compound 226-1, ((1S,3S,4R)-3-aminospiro[bicyclo[2.2.1]heptane-2,1′-cyclohexan]-3′-yl)(morpholino)methanone hydrochloride] | > 16 | > 16 | – | – | −32.0 | −24.5 | – | – | – | –
11 | CC[C@@]1(Cc2ccccc2)[C@@H]2CC[C@@H](C2)[C@@H]1N.Cl [Compound 219-P2, (1S,2S,3R,4R)-3-benzyl-3-ethylbicyclo[2.2.1]heptan-2-amine hydrochloride] | > 16 | > 16 | – | – | −10.3 | 11.3 | – | – | – | –
12 | CC(C)[C@@]1(C)[C@H]2CC[C@H](C2)[C@@H]1N.Cl [Compound 246-B, (1R,2S,3S,4S)-3-isopropyl-3-methylbicyclo[2.2.1]heptan-2-amine hydrochloride] | 6.99 | > 16 | – | – | −69.3 | 6.2 | – | – | – | –
13 | CC(C)C1(C)C2CCC(C2)C1N.Cl (racemic) [Compound 245, rac-3-isopropyl-3-methylbicyclo[2.2.1]heptan-2-amine hydrochloride] | 0.011 | 4.5 | – | – | −90.2 | 106.2 | – | – | – | –
14 | (1R,3S,4S)-spiro[bicyclo[2.2.1]heptane-3,1′-cyclopentan]-2-amine hydrochloride [Compound 209-P1] | – | – | 0.04 | > 5.6 | – | – | −70.66 | −210 | – | –
15 | Cl.N[C@H]1[C@@H]2CC[C@@H](C2)C12CCCCC2 [Compound 231, (1S,3S,4R)-spiro[bicyclo[2.2.1]heptane-2,1′-cyclohexan]-3-amine hydrochloride] | 1.63 | > 16 | – | – | −76.5 | −7.0 | – | – | – | –
16 | CC[C@]1(Cc2ccccc2)[C@@H]2CC[C@@H](C2)[C@@H]1N [Compound 222-P2, (1S,2S,3S,4R)-3-benzyl-3-ethylbicyclo[2.2.1]heptan-2-amine] | > 16 | – | – | – | 19.0 | – | – | – | – | –
17 | CC[C@@]1(Cc2ccccc2)[C@H]2CC[C@H](C2)[C@H]1N [Compound 222-P1, (1R,2R,3R,4S)-3-benzyl-3-ethylbicyclo[2.2.1]heptan-2-amine] | > 16 | – | – | – | −17.9 | – | – | – | – | –

Continued, in another order:

Row | EC50 (MUC1-fs; read-out: EC50) [µM] | EC50 (MUC1-wt; read-out: WT EC50) [µM] | EC50 (MUC1-fs; read-out: EC50(Spot)) [µM] | EC50 (MUC1-wt; read-out: WT EC50 (Cytoplasm)) [µM] | Compound | Emax (MUC1-fs) | WT EMax (MUC1-wt) | ECMax (%) (MUC1-fs) | WT ECMax (%) (MUC1-wt) | Emax (MUC1-fs; hydrochloride) | WT EMax (MUC1-wt; hydrochloride)
18 | > 16 | – | – | – | Cl.N[C@@H]1[C@@H]2CC[C@@H](C2)[C@]12CCC[C@@H](CO)C2 [Compound 220-P2, ((1S,2R,3R,3′R,4R)-3-aminospiro[bicyclo[2.2.1]heptane-2,1′-cyclohexan]-3′-yl)methanol hydrochloride] | 9.4 | – | – | – | – | –
19 | – | – | 1.04 | > 32 | C[C@@H]1CC[C@]2(C1)[C@@H]1CC[C@@H](C1)[C@@H]2N.Cl [Compound 210-P2-A] | – | – | −62.63 | −8.9 | – | –
20 | > 16 | > 16 | – | – | Cl.NC(=O)C1CCCC2(C1)C1CCC(C1)C2N (racemic) [Compound 224, rac-3-aminospiro[bicyclo[2.2.1]heptane-2,1′-cyclohexane]-3′-carboxamide hydrochloride] | −17.0 | −24.4 | – | – | – | –
21 | 5.99 | > 16 | – | – | NC1C2CCC(C2)C12CCCC2 (racemic) [Compound 232, rac-spiro[bicyclo[2.2.1]heptane-2,1′-cyclopentan]-3-amine] | −68.6 | 6.6 | – | – | – | –
22 | > 16 | > 16 | – | – | CN(C)CC1CCCC2(C1)C1CCC(C1)C2N.Cl (racemic) [Compound 223, rac-3′-((dimethylamino)methyl)spiro[bicyclo[2.2.1]heptane-2,1′-cyclohexan]-3-amine hydrochloride] | −12 | 25.7 | – | – | – | –
23 | > 16 | – | – | – | Cl.N[C@@H]1[C@@H]2CC[C@@H](C2)[C@]12CCC[C@H](CO)C2 [Compound 220-P1, ((1S,2R,3R,3′S,4R)-3-aminospiro[bicyclo[2.2.1]heptane-2,1′-cyclohexan]-3′-yl)methanol hydrochloride] | 6.0 | – | – | – | – | –
24 | > 16 | > 16 | – | – | Cl.NCC1CCCC2(C1)C1CCC(C1)C2N (racemic) [Compound 221, rac-3′-(aminomethyl)spiro[bicyclo[2.2.1]heptane-2,1′-cyclohexan]-3-amine hydrochloride] | 16.2 | 15.6 | – | – | – | –
25 | 10.1 | > 16 | – | – | COCC1CCCC2(C1)C1CCC(C1)C2N.Cl (racemic) [Compound 225-2, rac-3′-(methoxymethyl)spiro[bicyclo[2.2.1]heptane-2,1′-cyclohexan]-3-amine hydrogen chloride] | −20.7 | −11.1 | – | – | – | –
26 | > 16 | > 16 | – | – | Cl.N[C@@H]1[C@@H]2CC[C@@H](C2)C12CCC[C@H](O)C2 (stereo partly drawn) [Compound 241-A, (1S,3R,3′S,4R)-3-aminospiro[bicyclo[2.2.1]heptane-2,1′-cyclohexan]-3′-ol hydrochloride] | −11.4 | −5.7 | – | – | – | –
